These are literature values, as cited in US20100136106A1, “Modified Release Famciclovir Compositions” (priority 2005, published 2010).

Like-named read-outs stand apart in the source and are kept apart here. Where only a bound is given, the exact number is not on record here.

The conditions of data set [1]: for metabolite, % of the dose in the urine: in vivo, po.
For data set [2] the following is noted: single 500 mg oral dose of radiolabeled famciclovir.
For data set [3] the following is noted: for AUC(0-∞) / Cmax / Tmax: healthy male volunteers.
The conditions of data set [4]: below 85% relative humidity.
Experiment in data set [5]: not given
The source holds these as a separate data set.

The test system of data set [6] is cytochrome P450. To be noted: human liver microsomes. (In general: Microsomes from liver hold many membrane-bound enzymes, among them those of drug oxidation.)
Experiment in data set [7]: not given
The source holds these as a separate data set.

For data set [8] the following is noted: for solubility in water: 25° C.
For data set [9] the following is noted: intravenous penciclovir.
The conditions of data set [10]: 5 mg/kg radiolabeled penciclovir, 1-hour infusion.
For data set [11] the following is noted: 500 mg famciclovir t.i.d. for 7 days.
Data set [12] deals with viral DNA polymerase. The following applies: competitively with deoxyguanine triphosphate.
Where [13] appears, read: 500 mg famciclovir single oral dose, patients with herpes zoster.

In the case of `CC(=O)OCC(CO)CCn1cnc2cnc(N)nc21` (stereo not drawn) [6-deoxy monoacetylated penciclovir], the “metabolite, % of the dose in the urine” value in data set [1] was below 0.5%.
Regarding `Nc1ncc2ncn(CCC(CO)CO)c2n1` [6-deoxy penciclovir], the “metabolite, % of the dose in the urine” value in data set [1] is 5%.
Turning to `CC(=O)OCC(CCn1cnc2cnc(N)nc21)COC(C)=O` [famciclovir, 2-[2-(2-amino-9H-purin-9-yl)ethyl]-1,3-propanediol diacetate], in [2] (first 6 hours), the “administered radiolabeled dose collected in urine” value is on record as “Approximately 60%”. In data set [2] (over 72 hours), the “administered radioactivity recovered in feces” value was 27% and the “administered radioactivity recovered in urine” value is 73%. Further, in data set [3] (125 mg single oral dose), the “AUC(0-∞)” value was 2240 ng·h/mL, the Cmax is 800 ng/mL and the Tmax was 54 min. In addition, in data set [3] (250 mg single oral dose), the “AUC(0-∞)” value was 4480 ng·h/mL, the Cmax is 1600 ng/mL and the time of peak concentration (Tmax) is 54 min. In [3] (500 mg single oral dose), the “AUC(0-∞)” value was 8950 ng·h/mL, the Cmax was 3300 ng/mL and the Tmax is 54 min. In addition, in data set [4], the hygroscopicity result is “not hygroscopic”. Under setting [13], the “AUC (mean±SD)” value was 12100 ± 1700 ng·h/mL, the “Cmax (mean±SD)” value was 4000 ± 700 ng/mL and the “Tmax (mean±SD)” value was 42 ± 12 min. In addition, the “famciclovir detected in plasma or urine” value in data set [1] (oral administration of famciclovir) is listed as “Little or no”. Besides, the “decrease in Cmax” value in data set [5] (given 2 hours after a meal compared to 2 hours before a meal) is 18%. In data set [5] (regular doses), the “effect of food on absorption” value is recorded as “does not affect the extent of absorption”. Also, the “role of cytochrome P450 in famciclovir metabolism” value in data set [6] is “does not play an important role”. In [7] (octanol/phosphate buffer (pH 7.4)), the “partition coefficient P” value was 2.08. Besides, the “partition coefficient P” value in data set [7] (octanol/water (pH 4.8)) is 1.09. Moreover, in [8], the solubility in acetone result is “freely soluble”, the solubility in ethanol result is on record as “sparingly soluble”, the solubility in isopropanol entry is listed as “sparingly soluble” and the solubility in methanol entry was “freely soluble”. The solubility in water in data set [8] (initially) is recorded as above 25 % w/v.
In the case of `CC(=O)OCC(CO)CCn1cnc2c(=O)[nH]c(N)nc21` (stereo not drawn) [monoacetylated penciclovir], in [1], the “metabolite, % of the dose in the urine” value is below 0.5%.
On to `CC(=O)OCC(CCn1cnc2cnc(N)nc21)COC(C)=O` [monohydrate], for which the solubility in water in data set [8] (monohydrate that precipitates) was 2-3 % w/v.
Consider `Nc1nc2c(ncn2CCC(CO)CO)c(=O)[nH]1` [penciclovir], for which the entries for the “share of the radioactivity excreted in the urine” value in data set [2] and in [10] were 82% and 91%, respectively. Moreover, the “dose proportionality of penciclovir concentrations” value in data set [3] (famciclovir dose range of 125 mg to 750 mg, single dose) is on record as “increased in proportion to dose”. For the same compound, the “AUC of penciclovir greater in patients with herpes zoster as compared to healthy volunteers” value (500 mg famciclovir oral) is reported as “approximately 35%”. Further, the half-life (seven patients with herpes zoster) was 180 ± 66 min. Besides, the “decrease of penciclovir Cmax with food” value in data set [5] (capsule formulation of famciclovir with food (approximately 910 Kcal and 26% fat)) is “approximately 50%”. The “renal clearance as share of total plasma clearance” value in data set [9] is recorded as 74.5±8.8%. Moreover, the “dose excreted in urine” value in data set [10] (first 6 hours) is 83%. Also, the “administered radioactivity recovered in urine” value in data set [10] (over 24 hours) is reported as “Approximately 94%”. Moreover, in [11], the accumulation of penciclovir entry was “no accumulation”.
Regarding penciclovir triphosphate, the “inhibition of viral DNA polymerase” value in data set [12] is recorded as “inhibit viral DNA polymerase competitively”.

What is called Cmax is the highest concentration seen after dosing. A word on the Tmax: it is the time at which the peak concentration occurs. In general, half-life refers to the time needed for the level to fall by half in the phase considered.
